# Measurements: paper PMC5078090, “In vivo screening and discovery of novel candidate thalidomide analogs in the zebrafish embryo and chicken embryo model systems” (Oncotarget, 2016)
# Entries after “also recorded” stand apart in the source; their conditions may differ.
# Tests used:
# [1] = system: Tg(MPO::EGFP)^114 zebrafish; assay: Tg(MPO::EGFP)^114 zebrafish tail fin clip assay of neutrophil migration to the wound site; type: in vivo; conditions: for minimal effective concentration: Danio rerio, Neutrophil, fin clipped at 72 hpf, imaged at 24 h, screened 1-200 μg/mL, where no activity was seen the concentration shown is the lowest screened; for Effect on neutrophil migration to the wound site (anti-inflammatory activity): fin clipped 72 hpf embryos, result in words
# Source text: To assess the immunomodulatory effects of the thalidomide analogs across the concentration range used in the previous assay, the transgenic zebrafish line Tg(MPO::EGFP)^114 was used. These embryos express GFP tagged myeloperoxidase, marking neutrophils during the inflammatory response, for example following injury. […] This allowed us to subsequently assess the anti-inflammatory activity of each compound by immersing embryos in the test drug or vehicle. The embryos were examined for migration of neutrophils to the wound site. In comparison to control embryos (Figure 3A) compounds with anti-inflammatory properties had reduction of at least 50% of neutrophils recruited to the wound site (Figure 3). […] We also screened the previously identified six anti-angiogenic compounds of interest in the Tg(MPO::EGFP)^114 line.
# Figure 3 The effect of thalidomide analogs on the inflammatory response to wound healing A. Zebrafish (72 hpf) embryos transgenic for a fluorescently tagged neutrophil marker Tg(MPO::EGFP)^114 were fin clipped to induce an inflammatory response and exposed to vehicle or a test compound. Broken line indicates the tail fin with cut and area of the wound site. […] The data represent the mean + the standard error of the mean.
# Tg(MPO::EGFP)^114 embryos were tail fin clipped as previously detailed and incubated with test compounds or vehicle control at 72 hpf. Fish were imaged at 24 hours and the number of migratory neutrophils present at the wound site were counted. Compounds inducing an at least 50% reduction of neutrophils to the wound site were considered to have anti-inflammatory properties in this system. All larvae were assessed for viability and morphological integrity. A minimum of 10 embryos were used per concentration per drug. Error bars represent standard error of the mean.
# (§1) A broad series of novel thalidomide-based compounds were chemically synthesized (WL, NHG and WDF, NIH), dissolved in DMSO, stored in stock concentrations between 10-100 mg/mL, and used at a final working DMSO concentration of 0.1%. The chemical structures of lead compounds of interest were confirmed by chemical characterization (purity >99.5%). Compounds were screened across a range of concentrations from 1-200 μg/mL to determine the lowest effective concentration.
# [2] = system: fli1:EGFP zebrafish embryos; assay: fli1:EGFP zebrafish embryo angiogenesis assay (intersegmental vessel outgrowth and number); type: in vivo; conditions: for Anti-angiogenic activity (loss of ISVs or inhibition of ISV outgrowth): fli1:EGFP embryos, 24 h incubation, result in words; for minimal effective concentration: Danio rerio, 24 h, 24 hpf embryos exposed 24 h, screened 1-200 μg/mL, where no activity was seen the concentration shown is the lowest screened
# Protocol: To determine if our novel thalidomide analogs (Figure 1) had any effect on in vivo angiogenesis, we used fli1:EGFP embryos which express green fluorescent protein (GFP) on endothelial cells throughout development. Embryos were allowed to develop for 24 hours, then exposed to either vehicle or a compound of interest at the concentration range of 1 to 200 μg/mL. During this time the vasculature is rapidly expanding and developing new, naive intersegmental vessels (ISVs). The embryos were imaged after 24 hours of incubation with the drug (Figure 2A). […] We also observed that the potency of each compound varied.
# Figure 2 The effect of novel thalidomide analogs on vessel length fli1:EGFP zebrafish were incubated with vehicle or compounds for 24 hours, at which point vessel outgrowth and number were measured. A. Images of zebrafish exposed to the vehicle or test compounds. […] Treatment with C4 (1.5 μg/mL), C18 (50 μg/mL), C81 (50 μg/mL), C82 (5 μg/mL), C83 (20 μg/mL) and C84 (50 μg/mL) show reduction in vessel out growth (white arrow) and in some cases loss of vessel (white asterisks). B. Stalk length & C. stalk number are reduced. Compounds are shown at the lowest concentration producing an effect. The data represent the mean + the standard error of the mean.
# Zebrafish embryos were treated with analogs as previously described. Briefly, fli1:EGFP embryos were collected and embryos were allowed to develop for 24 hours. Embryos were dechorionated manually and exposed to test compounds or vehicle control (0.1% DMSO) for a further 24 hours. Embryos were anesthetized with 0.05% MS222 (Tricaine) (Sigma Aldrich) and live visualization of blood vessels was carried out.
# as §1
# [3] = system: WT Zebrafish; assay: WT zebrafish embryo developmental defect (teratogenicity) screen; type: in vivo; conditions: for Lowest effective concentration, WT Zebrafish assay: screened 1-200 μg/mL, where no activity was seen the concentration shown is the lowest screened
# [4] = system: chicken embryos; assay: In ovo chicken embryo teratogenicity assay; type: in vivo, white leghorn chicken; conditions: for Damage observed: HH stage 17-18 chicken embryos, 100 μg/mL; for Lowest effective concentration, Chicken assay: HH stage 17-18 embryos, where no activity was seen the concentration shown is the lowest screened; for Defects in chicken embryo development (text and figure legend): applied at HH stage 17-18, result in words; for Teratogenicity in these assays: chicken and zebrafish embryo assays together, result in words
# Protocol: Compounds of interest were screened in chicken and/or zebrafish embryos (Figure 4), to determine if these compounds are teratogenic. The chicken embryo is well established as a model to determine the action of compounds upon development.
# Fertilized white leghorn chicken embryos were incubated at 38°C and staged according to the Hamburger and Hamilton (HH) stages of development. Embryos were tested at HH stage 17-18 (day 2.5). Following membrane removal test compounds or vehicle control solutions were applied over the embryo. The eggs were sealed and the development of the embryos was monitored up to HH stage 30 (E9). A minimum of 3 embryos were used per concentration, per drug.
SMILES,minimal effective concentration [1] [µg/mL],Anti-angiogenic activity (loss of ISVs or inhibition of ISV outgrowth) [2],"Eye development / eye diameter in zebrafish embryos ([3]; Figure 4, result in words)","Lowest effective concentration, WT Zebrafish assay [3] [µg/mL]",Damage observed [4],"Lowest effective concentration, Chicken assay [4] [µg/mL]",Defects in chicken embryo development (text and figure legend) [4],Effect on neutrophil migration to the wound site (anti-inflammatory activity) [1],"Migration of neutrophils relative to control ([1]; fin clipped embryos, Figure 3)",minimal effective concentration [2] [µg/mL],Teratogenicity in these assays [4],"Pectoral fin development / fin length in zebrafish embryos ([3]; Figure 4, result in words)"
Nc1cccc2c1CN(C1C3CC4CC(C3)CC1C4)C2=O (stereo not shown) [Compound C83],20,anti-angiogenic activity,reductions in eye diameter,10,"Necrotic YSM, hemorrhaging",100,hemorrhaging; also recorded: abnormal blood vessels and necrotic-like regions in the surrounding yolk sac membrane,–,–,–,–,–
"O=C1CCC(N2C(=O)c3ccncc3C2=O)C(=O)N1 (stereo not shown) [Compound C58, 5-Aza-thalidomide]",5,without anti-angiogenic activities,–,5,–,100,no effect,reduced neutrophil migration,10 % of the control,10,non-teratogenic,–
O=C1c2cccc([N+](=O)[O-])c2CN1C1C2CC3CC(C2)CC1C3 (stereo not shown) [Compound C82],5,anti-angiogenic activity,reductions in eye diameter,5,Limb reduction defect,100,limb and digit defects,significantly reduce neutrophil migration,–,–,–,reductions
O=C1c2cccc([N+](=O)[O-])c2CN1C12CC3CC(CC(C3)C1)C2 [Compound C84],10,anti-angiogenic activity,reductions in eye diameter,10,Hemorrhaging,100,hemorrhaging,–,–,–,–,–
O=C1c2ccccc2CN1C12CC3CC(CC(O)(C3)C1)C2 [Compound C86],100,without anti-angiogenic activities,–,–,–,100,no effect,reduced neutrophil migration,–,10,non-teratogenic,–
Nc1ccc2c(c1)OC(=O)C(C1CCC(=O)NC1=O)C2=O (stereo not shown) [Compound C24],50,–,–,50,"Necrotic YSM, hemorrhaging",100,"abnormal blood vessels and necrotic-like regions in the surrounding yolk sac membrane; also recorded: hemorrhaging and necrotic-like damage in the YSM; also recorded: twisted spinal cords, necrotic-like damage in the YSM and high death rates",reduced neutrophil migration,–,50,–,–
